Measurements from US20230101963A1, “TREATMENT OF MEDICAL INDICATION” (VALLAURIX TRADING SARL MC, priority 2020, published 2023).

Key:
hMC2R = hMC2R (Homo sapiens, UniProt Q01718); test: agonist activity on hMC2R; type: biochemical; details: versus selective agonist affinity for hMC1R and hMC4R
[1] = in vivo
Text: For the purpose of the invention, the BBB permeability refers to the ability of a compound to cross the Blood-Brain-Barrier (BBB) that is intact, i.e. not leaking or otherwise compromised. Permeability can be determined based on presence of central effects (or side-effects). A compound with BBB permeability can show central effects or side-effects.
BBB permeable is the ability of a compound to pass the BBB that is intact and for instance not leaking or otherwise compromised. Permeability can be determined based on presence of central effects (or side-effects) after peripheral administration of the compound.

hMC2R, sequence (Q01718 whole entry): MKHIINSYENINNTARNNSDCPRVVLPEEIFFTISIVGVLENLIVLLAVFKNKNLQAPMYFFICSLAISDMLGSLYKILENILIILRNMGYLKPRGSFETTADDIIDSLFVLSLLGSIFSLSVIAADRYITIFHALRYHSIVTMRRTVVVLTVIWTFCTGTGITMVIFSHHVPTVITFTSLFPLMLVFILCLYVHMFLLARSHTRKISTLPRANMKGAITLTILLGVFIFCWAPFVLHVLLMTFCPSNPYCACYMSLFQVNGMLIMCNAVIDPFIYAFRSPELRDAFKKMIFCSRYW
hMC2R, sequence (Q8TCY5 whole entry partner): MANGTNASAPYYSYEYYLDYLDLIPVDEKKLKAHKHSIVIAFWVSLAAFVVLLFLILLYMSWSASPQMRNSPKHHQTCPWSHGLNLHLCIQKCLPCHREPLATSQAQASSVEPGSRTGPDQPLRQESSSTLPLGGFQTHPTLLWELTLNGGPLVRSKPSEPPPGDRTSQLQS

- activity on hMC2R (hMC2R): none
- central activity in human, indicating passage of the human blood-brain-barrier [1]: show central activity in human
Structure (SMILES): CCCC[C@H](NC(C)=O)C(=O)N[C@H]1CC(=O)NCCCC[C@@H](C(=O)O)NC(=O)[C@H](Cc2c[nH]c3ccccc23)NC(=O)[C@H](CCCN=C(N)N)NC(=O)[C@@H](Cc2ccccc2)NC(=O)[C@H](Cc2cnc[nH]2)NC1=O [bremelanotide, Ac-Nle-cyclo-(Asp-His-D-Phe-Arg-Trp-Lys-OH)]
